Literature values as cited in article PMC4141160, “Peptide Inhibitor of Complement C1, a Novel Suppressor of Classical Pathway Activation: Mechanistic Studies and Clinical Potential” (Frontiers in Immunology, 2014).

Legend:
transfused human RBCs = test system: transfused human RBCs; parameters: method as in PMID 12576307; conditions: mouse
C1q = test system: C1q; parameters: method as in PMID 20728940
purified C1q = biological target: purified C1q; parameters: method as in PMID 22906481; conditions: surface plasmon resonance, read-out: mean equilibrium dissociation constant (KD)
CLR of C1q = conditions: ELISA
C4a = conditions: single i.v. injection at 30 mg/kg; ELISA

sCR1: soluble complement receptor 1
hemolysis and C3 and C4 deposition on transfused human RBCs (transfused human RBCs): temporarily inhibit hemolysis as well as C3 and C4 deposition

PAICQRATATLGTVGSNTSGTTEIEACILL [CPP1, 30-residue PIC1 derivative from the HNP-1 homology region of astrovirus CP]
inhibition of C1 activation, as assayed by C1s cleavage (C1): inhibited C1 activation
inhibition of the binding of CP to C1q (C1q): inhibited the binding of CP to C1q
Classical pathway inhibition values using 0.77 mM peptide (classical pathway): 50%

IALILEPICCQERAA [PA]
Classical pathway inhibition values using 0.77 mM peptide (classical pathway): 85%
Kd (purified C1q): 0.0333 µM
binding to the CLR of C1q (CLR of C1q): specifically bind to the CLR of C1q

PAICQRAEIEACILL [Δ8–22, CPP1 with central region removed, functional peptide of 15 residues]
effect on the alternative pathway (alternative pathway): minimal effect
Classical pathway inhibition values using 0.77 mM peptide (classical pathway): 70%

B1: TNT009: humanized monoclonal analog of TNT003 (antibody, chains of the INN, looked up, V domains shown)
VH: EVQLVESGGGLVKPGGSLRLSCAASGFTFSNYAMSWVRQAPGKGLEWVATISSGGSHTYYLDSVKGRFTISRDNSKNTLYLQMNSLRAEDTALYYCARLFTGYAMDYWGQGTLVTVSS
VL: QIVLTQSPATLSLSPGERATMSCTASSSVSSSYLHWYQQKPGKAPKLWIYSTSNLASGVPSRFSGSGSGTDYTLTISSLQPEDFATYYCHQYYRLPPITFGQGTKLEIK
in vivo generation of C4a (C4a): inhibited the in vivo generation of C4a
